Experimental data taken from US7547690B2, “Compounds for the treatment of Hepatitis C” (Bristol-Myers Squibb Company, priority 2007, dated 2009).
Read-outs that look alike come from different tables or passages of the source.

Experiments:
HCV NS5B = molecular target: T1, HCV NS5B (Hepatitis C virus genotype 1b, UniProt Q9WMX2); test: HCV NS5B RdRp enzyme assay (standard / modified); assay type: biochemical; details: HCV RdRp genotype 1b; standard or modified assay not specified; read-out: IC50
T1 construct: The protein was expressed with an 18 amino acid C-terminal truncation to enhance the solubility; made in house; host or cells: E. coli BL21(DE3)
Experimental: HCV NS5B RdRp cloning, expression, and purification. The cDNA encoding the NS5B protein of HCV, genotype 1b, was cloned into the pET21a expression vector. The protein was expressed with an 18 amino acid C-terminal truncation to enhance the solubility. The E. coli competent cell line BL21(DE3) was used for expression of the protein. Cultures were grown at 37° C. for ˜4 hours until the cultures reached an optical density of 2.0 at 600 nm. The cultures were cooled to 20° C. and induced with 1 mM IPTG. Fresh ampicillin was added to a final concentration of 50 μg/ml and the cells were grown overnight at 20° C.
Cell pellets (3 L) were lysed for purification to yield 15-24 mgs of purified NS5B. The lysis buffer consisted of 20 mM Tris-HCl, pH 7.4, 500 mM NaCl, 0.5% triton X-100, 1 mM DTT, 1 mM EDTA, 20% glycerol, 0.5 mg/ml lysozyme, 10 mM MgCl2, 15 ug/ml deoxyribonuclease I, and Complete TM protease inhibitor tablets (Roche). After addition of the lysis buffer, frozen cell pellets were resuspended using a tissue homogenizer. To reduce the viscosity of the sample, aliquots of the lysate were sonicated on ice using a microtip attached to a Branson sonicator. The sonicated lysate was centrifuged at 100,000×g for 1 hr at 4° C. and filtered through a 0.2 μm filter unit (Corning).
The protein was purified using two sequential chromatography steps: Heparin sepharose CL-6B and polyU sepharose 4B (Pharmacia). The chromatography buffers were identical to the lysis buffer but contained no lysozyme, deoxyribonuclease I, MgCl2 or protease inhibitor and the NaCl concentration of the buffer was adjusted according to the requirements for charging the protein onto the column. Each column was eluted with a NaCl gradient which varied in length from 5-50 column volumes depending on the column type. After the final chromatography step, the resulting purity of the enzyme is >90% based on SDS-PAGE analysis. The enzyme was aliquoted and stored at −80° C.
Standard HCV NS5B RdRp enzyme assay. HCV RdRp genotype 1b assays were run in a final volume of 60 μl in 96 well plates (Corning 3600). The assay buffer is composed of 20 mM Hepes, pH 7.5, 2.5 mM KCl, 2.5 mM MgCl2, 1 mM DTT, 1.6 U RNAse inhibitor (Promega N2515), 0.01 mg/ml BSA (Sigma B6917), and 2% glycerol. All compounds were serially diluted (3-fold) in DMSO and diluted further in water such that the final concentration of DMSO in the assay was 2%. HCV RdRp genotype 1b enzyme was used at a final concentration of 28 nM. A polyA template was used at 6 nM, and a biotinylated oligo-dT12 primer was used at 180 nM final concentration. Template was obtained commercially (Amersham 27-4110). Biotinylated primer was prepared by Sigma Genosys. 3H-UTP was used at 0.6 μCi (0.29 μM total UTP). Reactions were initiated by the addition of enzyme, incubated at 30 ° C. for 60 min, and stopped by adding 25 μl of 50 mM EDTA containing SPA beads (4 μg/μl, Amersham RPNQ 0007). Plates were read on a Packard Top Count NXT after >1 hr incubation at room temperature.
Modified HCV NS5B RdRp enzyme assay. A modified enzyme assay was performed essentially as described for the standard enzyme assay except for the following: The biotinylated oligo dT12 primer was precaptured on streptavidin-coated SPA beads by mixing primer and beads in assay buffer and incubating at room temperature for one hour. Unbound primer was removed after centrifugation. The primer-bound beads were resuspended in 20 mM Hepes buffer, pH 7.5 and used in the assay at final concentrations of 20 nM primer and 0.67 μg/μl beads. Order of addition in the assay: enzyme (1.75 nM) was added to diluted compound followed by the addition of a mixture of template (0.36 nM), 3H-UTP (0.6 μCi, 0.29 μM), and primer-bound beads, to initiate the reaction; concentrations given are final. Reactions were allowed to proceed for 4 hours at 30° C.
IC50 values for compounds were determined using seven different [I]. […]

HCV replicon cells = test: HCV replicon FRET / luciferase assay; assay type: cell-based; details: 50% reduction in FRET or luciferase activity in HCV replicon cells, read-out: EC50
Experimental: FRET Assay Preparation. The HCV FRET screening assay was performed in 96-well cell culture plates. The FRET peptide (Anaspec, Inc.) (Taliani et al., Anal. Biochem. 1996, 240, 60-67) contains a fluorescence donor, EDANS, near one end of the peptide and an acceptor, DABCYL, near the other end. The fluorescence of the peptide is quenched by […] resonance energy transfer (RET) between the donor and the acceptor, but as the NS3 protease cleaves the peptide the products are released from RET quenching and the fluorescence of the donor becomes apparent. The assay reagent was made as follows: 5× cell Luciferase cell culture lysis reagent from Promega (#E153A) diluted to 1× with dH2O, NaCl added to 150 mM final, the FRET peptide diluted to 20 μM final from a 2 mM stock.
To prepare plates, HCV replicon cells, with or without a Renilla luciferase reporter gene, were trypsinized and plated in a 96-well plate with titrated test compounds added in columns 3 through 12; columns 1 and 2 contained a control compound (HCV control inhibitor), and the bottom row contained cells with DMSO only. The plates were then placed in a CO2 incubator at 37° C.
Assays. Subsequent to addition of the test compounds described above (FRET Assay Preparation), at various times the plate was removed and Alamar blue solution (Trek Diagnostics, #00-100) was added to measure cellular toxicity. After reading in a Cytoflour 4000 instrument (PE Biosystems), plates were rinsed with PBS and then used for FRET assay by the addition of 30 ul of the FRET peptide assay reagent described above (FRET Assay Preparation) per well. The plate was then placed into the Cytoflour 4000 instrument which had been set to 340 excite/490 emission, automatic mode for up to 20 cycles and the plate read in a kinetic mode. Typically, the signal to noise using an endpoint analysis after the reads was at least three-fold. Alternatively, after Alamar blue reading, plates were rinsed with PBS, then used for luciferase assay using the Promega Dual-Glo Luciferase Assay System or the Promega EnduRen Live Cell Substrate assay.
Compound analysis was performed by quantification of the relative HCV replicon inhibition and the relative cytotoxicity values. To calculate cytoxicity values, the average Alamar Blue fluorescence signals from the control wells were set as 100% non-toxic. The individual signals in each of the compound test wells were then divided by the average control signal and multiplied by 100% to determine […]. To calculate the HCV replicon inhibition values, an average background value was obtained from the two wells containing the highest amount of HCV control inhibitor at the end of the assay period. These numbers were similar to those obtained from naïve Huh-7 cells. The background numbers were then subtracted from the average signal obtained from the control wells and this number was used as 100% activity. The individual signals in each of the compound test wells were then divided by the averaged control values after background subtraction and multiplied by 100% to determine percent activity. EC50 values were calculated as the concentration which caused a 50% reduction in FRET or luciferase activity. The two numbers generated for the compound plate, percent cytoxicity and percent activity, were used to determine compounds of interest for further analysis.

T1 sequence (Q9WMX2 2420-2992): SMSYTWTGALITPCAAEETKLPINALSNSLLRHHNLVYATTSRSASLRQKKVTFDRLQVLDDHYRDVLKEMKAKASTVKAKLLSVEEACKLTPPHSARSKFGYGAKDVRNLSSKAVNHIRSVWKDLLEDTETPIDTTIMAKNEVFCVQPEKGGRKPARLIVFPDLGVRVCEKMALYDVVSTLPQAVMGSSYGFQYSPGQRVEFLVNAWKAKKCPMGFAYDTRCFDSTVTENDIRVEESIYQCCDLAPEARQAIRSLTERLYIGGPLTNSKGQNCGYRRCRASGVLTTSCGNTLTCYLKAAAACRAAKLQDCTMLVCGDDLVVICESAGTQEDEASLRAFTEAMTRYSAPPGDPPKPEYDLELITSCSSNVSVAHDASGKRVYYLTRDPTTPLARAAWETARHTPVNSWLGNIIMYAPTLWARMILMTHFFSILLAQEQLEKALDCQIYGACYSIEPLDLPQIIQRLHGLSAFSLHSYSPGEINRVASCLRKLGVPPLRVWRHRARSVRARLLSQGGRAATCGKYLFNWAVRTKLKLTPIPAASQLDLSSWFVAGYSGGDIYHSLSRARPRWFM

SMILES | IC50 (HCV NS5B) [nM] | EC50 (HCV replicon cells; Hepatitis C virus) [nM] | EC50 (HCV replicon cells) [nM]
COc1ccc2c(c1)C1CC1(C(=O)N1C3CNCC1CN(C)C3)Cn1c-2c(C2CCCCC2)c2ccc(C(=O)NS(=O)(=O)N(C)C)cc21 (centres unmarked) | 2.4 to 500 | – | –
COc1ccc2c(c1)C1CC1(C(=O)N1C3CC1CN(Cc1ccccc1)C3)Cn1c-2c(C2CCCCC2)c2ccc(C(=O)NS(=O)(=O)C3CCCCC3)cc21 (centres unmarked) | 2.4 to 500 | 500 to 5000 | –
COc1ccc2c(c1)C1CC1(C(=O)N1C[C@H]3C[C@@H]1CN3CC(C)C)Cn1c-2c(C2CCCCC2)c2ccc(C(=O)NS(=O)(=O)N3CCC3)cc21 (some centres unmarked) | 2.4 to 500 | 2.4 to 500 | –
COc1ccc2c(c1)C1CC1(C(=O)N1CC3CCC1CN3)Cn1c-2c(C2CCCCC2)c2ccc(C(=O)NS(=O)(=O)C3CCC3)cc21 (centres unmarked) | 2.4 to 500 | 2.4 to 500 | –
CCN(C)S(=O)(=O)NC(=O)c1ccc2c(C3CCCCC3)c3n(c2c1)CC1(C(=O)N2C4CC2CN(C)C4)CC1c1cc(OC)ccc1-3 (centres unmarked) | 2.4 to 500 | 2.4 to 500 | –
CCN(CC)S(=O)(=O)NC(=O)c1ccc2c(C3CCCCC3)c3n(c2c1)CC1(C(=O)N2C4CC2CN(C)C4)CC1c1cc(OC)ccc1-3 (centres unmarked) | 2.4 to 500 | 2.4 to 500 | –
COc1ccc2c(c1)C1CC1(C(=O)N1C3CC1CN(C)C3)Cn1c-2c(C2CCCCC2)c2ccc(C(=O)NS(=O)(=O)CC(F)F)cc21 (centres unmarked) | 2.4 to 500 | 2.4 to 500 | –
COc1ccc2c(c1)C1CC1(C(=O)N1C3COC[C@@H]1CN(C)C3)Cn1c-2c(C2CCCCC2)c2ccc(C(=O)NS(=O)(=O)CC(F)(F)F)cc21 (some centres unmarked) | 2.4 to 500 | 2.4 to 500 | –
COc1ccc2c(c1)C1CC1(C(=O)N1C[C@@H]3C[C@H]1CN3C)Cn1c-2c(C2CCCCC2)c2ccc(C(=O)NS(=O)(=O)C3CC3)cc21 (some centres unmarked) [drawing 51] | 2.4 to 500 | – | > 500
COc1ccc2c(c1)C1CC1(NC(=O)N1CC3CN(Cc4ccccc4)CC(C1)N3Cc1ccccc1)Cn1c-2c(C2CCCCC2)c2ccc(C(=O)NS(=O)(=O)N(C)C)cc21 (centres unmarked) | 500 to 5000 | – | –
COc1ccc2c(c1)[C@@H]1C[C@]1(C(=O)N1CC3CC1CN3C)Cn1c-2c(C2CCCCC2)c2ccc(C(=O)NS(=O)(=O)N(C)C)cc21 (some centres unmarked) | < 20 | 2.4 to 500 | –
COc1ccc2c(c1)C1CC1(C(=O)N1C3CC1CN(C)C3)Cn1c-2c(C2CCCCC2)c2ccc(C(=O)NS(=O)(=O)CCCF)cc21 (centres unmarked) | 2.4 to 500 | 2.4 to 500 | –
COc1ccc2c(c1)C1CC1(C(=O)N1CC3COCC(C1)N3C)Cn1c-2c(C2CCCCC2)c2ccc(C(=O)NS(=O)(=O)N(C)C)cc21 (centres unmarked) | 2.4 to 500 | 2.4 to 500 | –
COc1ccc2c(c1)[C@@H]1C[C@]1(C(=O)N1C3CC1CN(C)C3)Cn1c-2c(C2CCCCC2)c2ccc(C(=O)NS(=O)(=O)C(C)C)cc21 | 2.4 to 500 | 2.4 to 500 | –
COc1ccc2c(c1)C1CC1(C(=O)N1C[C@H]3C[C@@H]1CN3C(=O)OC(C)(C)C)Cn1c-2c(C2CCCCC2)c2ccc(C(=O)NS(=O)(=O)N3CCC3)cc21 (some centres unmarked) | 2.4 to 500 | 2.4 to 500 | –
COc1ccc2c(c1)C1CC1(C(=O)N1C3CC1CN(Cc1ccccc1)C3)Cn1c-2c(C2CCCCC2)c2ccc(C(=O)NS(=O)(=O)CC(F)(F)F)cc21 (centres unmarked) | 2.4 to 500 | 500 to 5000 | –
COc1ccc2c(c1)C1CC1(C(=O)N1C[C@@H]3C[C@H]1CN3C)Cn1c-2c(C2CCCCC2)c2ccc(C(=O)NS(=O)(=O)N(C)C)cc21 (some centres unmarked) | < 20 | 2.4 to 500 | –
COc1ccc2c(c1)C1CC1(C(=O)N1C3CC1CN(Cc1ccccc1)C3)Cn1c-2c(C2CCCCC2)c2ccc(C(=O)NS(=O)(=O)C3CCCC3)cc21 (centres unmarked) | 2.4 to 500 | 2.4 to 500 | –
COc1ccc2c(c1)[C@@H]1C[C@]1(C(=O)N1C3CCCC1CN(C)C3)Cn1c-2c(C2CCCCC2)c2ccc(C(=O)NS(=O)(=O)N(C)C)cc21 | 2.4 to 500 | 2.4 to 500 | –
COc1ccc2c(c1)C1CC1(C(=O)N1[C@@H]3C[C@H]1CN(C)C3)Cn1c-2c(C2CCCCC2)c2ccc(C(=O)NS(=O)(=O)N(C)C)cc21 (some centres unmarked) | 2.4 to 500 | 2.4 to 500 | –
COc1ccc2c(c1)C1CC1(C(=O)N1CC3(C)CN(C)CC(C)(C1)C3)Cn1c-2c(C2CCCCC2)c2ccc(C(=O)NS(=O)(=O)N(C)C)cc21 (centres unmarked) | 2.4 to 500 | 2.4 to 500 | –
COc1ccc2c(c1)C1CC1(C(=O)N1C[C@@H]3C[C@H]1CN3C(=O)OC(C)(C)C)Cn1c-2c(C2CCCCC2)c2ccc(C(=O)NS(=O)(=O)N(C)C)cc21 (some centres unmarked) | 2.4 to 500 | 2.4 to 500 | –
COc1ccc2c(c1)C1CC1(C(=O)N1C[C@H]3C[C@@H]1CN3C(=O)OC(C)(C)C)Cn1c-2c(C2CCCCC2)c2ccc(C(=O)NS(=O)(=O)N(C)C)cc21 (some centres unmarked) | 2.4 to 500 | – | –
COc1ccc2c(c1)[C@@H]1C[C@]1(C(=O)N1CC3CCC1CN3C)Cn1c-2c(C2CCCCC2)c2ccc(C(=O)NS(=O)(=O)C(C)C)cc21 (some centres unmarked) [drawing 129] | – | – | 2.4 to 500
COc1ccc2c(c1)C1CC1(C(=O)N1C[C@@H]3C[C@H]1CN3)Cn1c-2c(C2CCCCC2)c2ccc(C(=O)NS(=O)(=O)C3CC3)cc21 (some centres unmarked) | 2.4 to 500 | – | –
CCC(C)S(=O)(=O)NC(=O)c1ccc2c(C3CCCCC3)c3n(c2c1)CC1(C(=O)N2C4COCC2CN(C)C4)CC1c1cc(OC)ccc1-3 (centres unmarked) | 2.4 to 500 | – | –
COc1ccc2c(c1)[C@@H]1C[C@]1(C(=O)N1CC3CCC1CN3C)Cn1c-2c(C2CCCCC2)c2ccc(C(=O)NS(=O)(=O)C(C)C)cc21 (some centres unmarked) [drawing 128] | – | 2.4 to 500 | –
